Experimental data from patent publication US20220265656A1, “COMBINATION THERAPIES WITH IRE1 SMALL MOLECULE INHIBITORS” (Cornell University, priority 2019, published 2022).
Counter-ions that a name gives are not always drawn.

How the values were obtained:
IRE1a [1] = biological target: T1, IRE1a (Homo sapiens, UniProt O75460); experiment: IRE1a Endoribonuclease Nanoluciferase Assay in 293T cells; format: cell-based; parameters: endogenous in cells; host or cells: 293T cells; conditions: XBP1 luciferase reporter in 293T cells, ER stressor
Protocol: Compounds disclosed herein were assessed for disruption of IRE1 signaling using a IRE1a Endoribonuclease Nanoluciferase Assay. Briefly, 2.5×10^6 293T cells were seeded in a 10 cm^2 tissue culture plate. About 24 hours later, the cells were transfected with Effectene. In a 15 mL tube, the following was added: 2 ug XBP1 luciferase reporter plasmid (PGK-Luc2-P2A-XBP1u-Nanoluciferase-PEST); 300 ul EC buffer; and 16 ul Enhancer, followed by incubation at room temp for 5 minutes. Next, 60 ul Effectene (Qiagen 301427) was added, followed by incubation at room temperature for 10 minutes, 2.6 mL cDMEM media was added. Old media was aspirated from the cells, followed by addition of 7 mL fresh media. Full transfection mixture was added dropwise to cells. Cells were incubated for 6 hours, followed by trypsinization, centrifugation and resuspension in 11 mL fresh cDMEM media, 100 uL of cells were plated per a well in a 96 well plate. A day later, ER stressors of choice +/−inhibitors were added. To harvest, media was aspirated from cells completely, then 50 uL 1× passive lysis buffer (Promega: E1941) was added per well and put on shaker (300 rpm) for 30 minutes at room temperature. Cells were centrifuged, and 15 uL sample per well was added to a new, opaque white 384 well plate (Corning 3570), 15 uL OneGlo (nanoluciferase kit, Promega N1630) was added. Plates were spun down, placed on shaker (300 rpm) for 10 minutes. Plates were read on luminometer, 1000 ms integration time per well, 15 uL Stop and Glo (nanoluciferase kit) was added. Plates were spun down, placed on shaker (300 rpm) for 10 minutes. Plates were read on luminometer, 1000 ms second integration time per well. Recordings are provided below in Table 4.

IRE1a [2] = biological target: T1, IRE1a; experiment: In vitro FRET assay (IRE1a cleavage of XBP1 RNA probe); format: biochemical; parameters: purchased SignalChem; conditions: 2 nM IRE1a
Protocol: In vitro FRET assay was performed to evaluate the ability of select compounds to inhibit IRE1, the results of which are summarized in Table 3. To perform the in vitro FRET assay, 1× complete assay buffer (CAB; […], 50 mM sodium citrate pH 7.15, 1 mM magnesium acetate, 0.02% tween 20) was used to dilute SignalChem IRE1a protein to a final concentration of 2 nM. Selected compounds were serially diluted with DMSO in a non-binding black 384-well plate for a total of 15 ul in each well, 2 ul of the serially diluted compound or DMSO control were then added to new wells containing 98 ul of 1×CAB, for a total volume of 100 ul, 10 ul of which were then transferred to wells of a new plate, 5 ul of the diluted IRE1a was then added to each well, 5 ul of a […] XBP1 RNA probe was then added to each well. Fluorescence was then read over 30 minutes in kinetic mode (485/515 nm).
Two RNA probes were used, XBP1 wildtype (SEQ ID NO: 2) which is able to be spliced by active IRE1a or XBP1 mutant (SEQ ID NO: 3) which is unable to be spliced. Each probe contained a 5′ 6-FAM modification and a 3′ IOWA Black FQ modification. […]

T1 sequence (O75460 19-977): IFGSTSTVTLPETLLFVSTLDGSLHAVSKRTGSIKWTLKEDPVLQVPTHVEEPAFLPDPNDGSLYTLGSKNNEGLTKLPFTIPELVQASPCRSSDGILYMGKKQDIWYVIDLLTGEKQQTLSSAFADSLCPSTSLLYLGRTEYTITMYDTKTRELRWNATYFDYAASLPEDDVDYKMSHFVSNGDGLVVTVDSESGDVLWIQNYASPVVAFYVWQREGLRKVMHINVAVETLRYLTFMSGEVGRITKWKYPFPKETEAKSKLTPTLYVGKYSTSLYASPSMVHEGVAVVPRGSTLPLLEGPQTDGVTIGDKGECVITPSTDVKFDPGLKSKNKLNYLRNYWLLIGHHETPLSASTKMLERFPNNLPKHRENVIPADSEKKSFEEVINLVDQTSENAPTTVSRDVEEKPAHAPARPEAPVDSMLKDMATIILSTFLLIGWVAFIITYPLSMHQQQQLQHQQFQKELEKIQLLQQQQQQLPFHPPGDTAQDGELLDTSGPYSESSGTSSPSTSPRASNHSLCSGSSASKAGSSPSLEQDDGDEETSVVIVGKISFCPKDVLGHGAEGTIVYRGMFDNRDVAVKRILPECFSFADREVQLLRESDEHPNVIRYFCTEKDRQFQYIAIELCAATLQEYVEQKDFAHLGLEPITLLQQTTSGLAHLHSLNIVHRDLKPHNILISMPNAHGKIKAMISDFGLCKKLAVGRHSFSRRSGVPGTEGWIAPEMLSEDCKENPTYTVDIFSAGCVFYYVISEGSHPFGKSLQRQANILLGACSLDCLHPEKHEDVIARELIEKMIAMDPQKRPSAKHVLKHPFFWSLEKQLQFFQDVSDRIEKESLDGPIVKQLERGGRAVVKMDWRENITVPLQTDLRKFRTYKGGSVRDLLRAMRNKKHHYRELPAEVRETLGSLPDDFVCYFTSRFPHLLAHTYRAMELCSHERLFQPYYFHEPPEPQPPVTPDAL

CCc1cc(-c2cc(NS(=O)(=O)c3ccccc3Cl)n[nH]2)cc2cnc(N[C@H]3CC[C@H](N)CC3)nc12 [29; Formic Acid Salt]
EC50 (IRE1a [1]): 100 to 10000 nM

CCc1cc(-c2ccc(N(C)S(=O)(=O)c3ccccc3Cl)cc2C)cc2cnc(N[C@H]3CC[C@H](N)CC3)nc12 [31; Formic Acid Salt]
IC50 (IRE1a [2]): 100 to 10000 nM

N[C@H]1CC[C@H](Nc2ncc3cc(-c4cc(F)c(NS(=O)(=O)c5ccccc5Cl)cc4F)ccc3n2)CC1 [53; Formic Acid Salt]
EC50 (IRE1a [1]): ≤ 5 nM
IC50 (IRE1a [2]): ≤ 5 nM

CCc1cc(-c2ccc(NS(=O)(=O)c3ccccc3Cl)nn2)cc2cnc(N[C@H]3CC[C@H](NC)CC3)nc12 [61; Formic Acid Salt]
EC50 (IRE1a [1]): ≤ 5 nM
IC50 (IRE1a [2]): ≤ 5 nM

CCc1cc(-c2ccc(NS(=O)(=O)c3ccccc3Cl)nn2)cc2cnc(N[C@H]3CC[C@H](N(C)C)CC3)nc12 [64; Formic Acid Salt]
EC50 (IRE1a [1]): ≤ 5 nM
IC50 (IRE1a [2]): ≤ 5 nM

CCc1cc(-c2ccc(NS(=O)(=O)c3ccccc3Cl)c(F)c2)cc2cnc(N[C@@H]3CCC[C@H](N)C3)nc12 [72; Formic Acid Salt]
EC50 (IRE1a [1]): 100 to 10000 nM

N[C@H]1CCC[C@@H](Nc2ncc3cc(-c4ccc(NS(=O)(=O)c5ccccc5Cl)c(F)c4)ccc3n2)C1 [75; Formic Acid Salt]
EC50 (IRE1a [1]): 100 to 10000 nM
IC50 (IRE1a [2]): ≤ 5 nM

N[C@H]1CC[C@@H](Nc2ncc3cc(-c4ccc(NS(=O)(=O)c5ccccc5Cl)c(F)c4)ccc3n2)C1 [80; Formic Acid Salt]
EC50 (IRE1a [1]): 100 to 10000 nM

CCc1cc(-c2ccc(NS(=O)(=O)c3ccccc3Cl)c(F)c2)cc2cnc(N[C@H]3CC[C@H](N4CCCC4)CC3)nc12.O=CO [88; Formic Acid Salt]
Mean EC50 (IRE1a [1]): ,

N[C@H]1CC[C@H](Nc2ncc3cc(-c4nnc(NS(=O)(=O)c5ccccc5Cl)s4)ccc3n2)CC1 [89; Formic Acid Salt]
EC50 (IRE1a [1]): 100 to 10000 nM

CCc1cc(-c2cnc(NS(=O)(=O)c3ccccc3Cl)cc2OC)cc2cnc(N[C@H]3CC[C@H](N)CC3)nc12 [92; Formic Acid Salt]
EC50 (IRE1a [1]): 100 to 10000 nM

CCc1cc(-c2cnc(NS(=O)(=O)c3ccccc3Cl)c(F)c2)cc2cnc(N[C@H]3CC[C@H](N(C)C)CC3)nc12 [95; Formic Acid Salt]
EC50 (IRE1a [1]): ≤ 5 nM
IC50 (IRE1a [2]): ≤ 5 nM

CCc1cc(-c2ccc(NS(=O)(=O)c3ccccc3Cl)nc2OC)cc2cnc(N[C@H]3CC[C@H](N(C)C)CC3)nc12 [99; Formic Acid Salt]
EC50 (IRE1a [1]): ≤ 5 nM
IC50 (IRE1a [2]): ≤ 5 nM

CCc1nc(NS(=O)(=O)c2ccccc2Cl)ccc1-c1cc(CC)c2nc(N[C@H]3CC[C@H](N(C)C)CC3)ncc2c1 [117; Formic Acid Salt]
EC50 (IRE1a [1]): ≤ 5 nM
IC50 (IRE1a [2]): ≤ 5 nM

CCc1cc(-c2ccc(NS(=O)(=O)c3ccccc3C)nc2OC)cc2cnc(N[C@H]3CC[C@H](N(C)C)CC3)nc12 [119; Formic Acid Salt]
EC50 (IRE1a [1]): ≤ 5 nM
IC50 (IRE1a [2]): ≤ 5 nM

CCc1cc(-c2ccc(NS(=O)(=O)c3ccccc3Cl)nc2C)cc2cnc(N[C@H]3CC[C@H](N(C)CC(F)(F)F)CC3)nc12 [126; Formic Acid Salt]
IC50 (IRE1a [2]): 50 to 100 nM

CCc1cc(-c2cc(F)c(NS(=O)(=O)c3ccccc3Cl)nc2OC)cc2cnc(N[C@H]3CC[C@H](NC)CC3)nc12 [127; Formic Acid Salt]
EC50 (IRE1a [1]): ≤ 5 nM
IC50 (IRE1a [2]): ≤ 5 nM

COc1nc(NS(=O)(=O)c2ccccc2Cl)ccc1-c1cc(C)c2nc(N[C@H]3CC[C@@H](N(C)C)CC3)ncc2c1 [139; Formic Acid Salt]
IC50 (IRE1a [2]): 5 to 50 nM

CCc1cc(-c2cc(F)c(NS(=O)(=O)c3ccccc3Cl)nc2OC)cc2cnc(N[C@H]3CC[C@@H](N(C)C)CC3)nc12 [142; Formic Acid Salt]
IC50 (IRE1a [2]): 5 to 50 nM

CCc1cc(-c2ccc(NS(=O)(=O)c3ccccc3Cl)nc2OC)cc2cnc(N[C@H]3CC[C@@](C)(N(C)C)CC3)nc12 [143; Formic Acid Salt]
IC50 (IRE1a [2]): 5 to 50 nM

COc1nc(NS(=O)(=O)c2ccccc2Cl)c(F)cc1-c1cc(C)c2nc(N[C@H]3CC[C@@H](N(C)C)CC3)ncc2c1 [147; Formic Acid Salt]
IC50 (IRE1a [2]): 5 to 50 nM

Cc1nc(NS(=O)(=O)c2ccccc2Cl)c(F)cc1-c1cc(F)c2nc(N[C@H]3CC[C@H](N(C)C)CC3)ncc2c1 [156; Formic Acid Salt]
IC50 (IRE1a [2]): 100 to 10000 nM
